Results as given in patent US20140336216A1, “PHYSIOLOGICAL LIGANDS FOR GPR139” (Janssen Pharmaceutica NV, priority 2013, published 2014).
pEC50: −log10 of the molar value. Several values for one entry are separate records, joined by “and”; a condition that tells them apart may be missing. Equal values may be shown once.

Key:
GPR139 [1] = target: T1, GPR139 (Homo sapiens, UniProt Q6DWJ6); experiment: GTPγS binding assay, single-concentration screen, COS7 membranes co-expressing GPR139 and GO2Q; format: biochemical; design: expressed in transfected cells; host or cells: COS7 (membranes); conditions: for Activation of GPR139 in the GTPγS binding assay: 1 mM; for Activation levels of GPR139 (GTPγS binding), GPR139-GO2Q: 1 mM final concentration, COS7 membranes co-expressing GPR139 and GO2Q, single wells of triplicate
T1 sequence (Q6DWJ6 1-353): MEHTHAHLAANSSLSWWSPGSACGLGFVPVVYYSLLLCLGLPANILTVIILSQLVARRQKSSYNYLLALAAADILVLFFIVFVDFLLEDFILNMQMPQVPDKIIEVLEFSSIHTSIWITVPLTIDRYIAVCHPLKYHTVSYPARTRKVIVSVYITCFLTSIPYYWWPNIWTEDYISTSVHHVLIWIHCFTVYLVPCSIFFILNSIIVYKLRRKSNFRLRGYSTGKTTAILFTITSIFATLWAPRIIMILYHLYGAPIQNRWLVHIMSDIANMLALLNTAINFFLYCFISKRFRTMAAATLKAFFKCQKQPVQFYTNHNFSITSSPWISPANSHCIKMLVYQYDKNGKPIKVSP
Experimental: (§1) In order identify the ligands for GPR139 two improvements in the detection assay were made to allow for the ligands to be detected. First, we chose to use a GTPγS binding assay instead of using live cultured cells. The GTPγS binding assay is a cell free system that uses the cell membrane of the cell(s) of interest rather than the live cell(s). One advantage of this assay is that potential ligands present in the cell culture media are washed away when the cell membrane is prepared. This reduces the basal level of signal and increase the chance of detecting receptor ligands when assessing compounds that activate the receptor. Second, a GO2Q chimeric G-protein was created to be co-expressed with GPR139 in order to increase the signal-to-noise ratio in the GTPγS binding assay. Historically, the Gi, Go coupled GPCRs offer much greater signal-to-noise ratio in GTPγS binding studies. For Gs and Gq coupled GPCRs, although ligand-stimulated specific signals can be detected in a GTPγS binding assay, the signal-to-noise ratios are often very small. To address this a chimeric GO2-Gq chimeric G-protein, GO2Q, with the N-terminus from Go2 protein and the C-terminus from Gq protein.
(§2) To test for compounds that activate GPR139, different amino acids and their derivatives (Table 2) were tested as ligands in the GTPγS binding assay using cell membranes from COS7 cells co-expressing GPR139 and GO2Q. Cell membrane from COS7 cells expressing GO2Q alone or co-expressing other GPCRs were also tested in GTPγS binding assay in parallel as controls. Each compound was tested in triplicate.

GPR139 [2] = target: T1, GPR139; experiment: GTPγS binding dose response study, human GPR139 co-transfected with GO2Q into COS7 cells; format: biochemical; design: expressed in transfected cells; host or cells: COS7 (membranes); conditions: human GPR139, FIG. 2A and 2B
Source text: (§3) FIG. 2-FIG. 2F: Tryptophan, phenylalanine, and their derivatives activate GPR139. Human (FIG. 2A and FIG. 2B) or mouse (FIG. 2C and FIG. 2D) GPR139 were co-transfected with chimeric G-protein GO2Q into COS7 cells. Cell membranes from transfected cells were used in GTPγS binding studies using various ligands at different concentrations to stimulate GPR139. FIG. 2E and FIG. 2F show control experiments in the dose response studies of Example 1.

GPR139 [3] = target: T1, GPR139; experiment: Calcium mobilization assay (FLIPR), GPR139 expressed in HEK293 cells; format: cell-based; design: expressed in transfected cells; host or cells: HEK293 (transient); conditions: for pEC50: GPR139 expressing HEK293 cells, read-out: EC50 (half maximal effective concentration), calcium mobilization; for Stimulation of calcium mobilization: human GPR139 transiently expressed in HEK293 cells, FIG. 3
Experimental: FIG. 3A and FIG. 3B: Provides the results of experiments conducted to determine whether Trp and its derivatives (FIG. 3A) and Phe and its derivatives (FIG. 3B) stimulate Ca^2+ mobilization in HEK293 cells expressing GPR139.
The active compounds were also tested in a calcium mobilization assay (FLIPR® assay). For these experiments human GPR139 was transiently expressed in HEK293 cells and calcium mobilization was stimulated using L-Trp, L-Phe or their derivatives. […] The concentrations of L-Trp and L-Phe in many cell culture media (for instance DMEM is about 80 μM and 750 μM respectively) are close to the EC50 values of L-Trp and L-Phe for GPR139. […] This may explain why GPR139 appeared constitutively active when recombinantly expressed in mammalian cells.
About 300 additional phenylalanine analogues have been tested for GPR139 activation using a calcium mobilization (FLIPR®) assay. The results of these experiments indicate that many of these analogues can also activate GPR139. Table 4 lists certain phenylalanine analogues that have been determined to activate GPR139 by calcium mobilization at a concentration of 300 μM (calcium mobilization is expressed as percentage of that observed for L-phenylalanine).

mouse GPR139 = target: T2, mouse GPR139 (Mus musculus, UniProt Q80UC8); experiment: GTPγS binding dose response study, mouse GPR139 co-transfected with GO2Q into COS7 cells; format: biochemical; conditions: mouse GPR139, FIG. 2C and 2D
T2 construct: expressed in transfected cells; host or cells: COS7 (membranes)
T2 sequence (Q80UC8 1-345): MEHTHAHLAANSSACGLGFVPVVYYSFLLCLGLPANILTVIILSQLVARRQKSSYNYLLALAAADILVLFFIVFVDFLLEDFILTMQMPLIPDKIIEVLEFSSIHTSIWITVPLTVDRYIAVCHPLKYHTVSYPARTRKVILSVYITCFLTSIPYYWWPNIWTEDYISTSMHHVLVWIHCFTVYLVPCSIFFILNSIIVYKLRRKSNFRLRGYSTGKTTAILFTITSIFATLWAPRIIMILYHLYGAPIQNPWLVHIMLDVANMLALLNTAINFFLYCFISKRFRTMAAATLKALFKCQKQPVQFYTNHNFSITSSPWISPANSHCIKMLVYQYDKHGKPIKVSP
Source text: as §3

[4] = tested on: GPR21, GPR52, GPCR119, GPCR132, GPCR134, or GPR182; experiment: GTPγS binding assay, control membranes co-expressing GO2Q and other GPCRs (data not shown); format: biochemical
Experimental: as §2

GO2Q alone = experiment: GTPγS binding assay, control COS7 membranes expressing GO2Q alone (Ct-GO2Q); format: biochemical; conditions: for Activation levels (GTPγS binding), Ct-GO2Q: 1 mM final concentration, COS7 membranes expressing GO2Q alone, single wells of triplicate; for Activation of membranes from cells expressing GO2Q alone: same assay, 1 mM
Experimental: as §1, §2

[5] = target: T3, N-terminally V-tagged mouse GPR139 (Mus musculus, UniProt Q80UC8); experiment: GPR139 internalization in transiently transfected HEK-293 cells; format: cell-based; conditions: FIG. 4
T3 construct: V tag (printed 'V-tagged' and 'VS-tagged'); expressed in transfected cells; host or cells: HEK-293 (transient)
T3 sequence (Q80UC8 1-345): T2 sequence (Q80UC8 1-345)
Source text: Many GPCRs are internalize by the cell when they are activated.

Row | SMILES | Activation of GPR139 in the GTPγS binding assay (GPR139 [1]) | Activation levels of GPR139 (GTPγS binding), GPR139-GO2Q (GPR139 [1]) | Dose-responsive activation of GPR139 (GTPγS binding) (GPR139 [2]) | pEC50 (GPR139 [3]) | Stimulation of calcium mobilization (GPR139 [3]) | Dose-responsive activation of GPR139 (GTPγS binding) (mouse GPR139) | Activation of membranes from cells co-expressing GO2Q and other GPCRs [4] | Activation levels (GTPγS binding), Ct-GO2Q (GO2Q alone) | Activation of membranes from cells expressing GO2Q alone (GO2Q alone) | Internalization of tagged GPR139 upon stimulation [5]
1 | N[C@@H](Cc1c[nH]c2ccccc12)C(=O)O [Trp, L-tryptophan] | able to activate GPR139 | 8141 and 9121 and 9149 | specifically activate GPR139 in a dose-responsive manner | 3.70 to 4.00 | specifically stimulate calcium mobilization | specifically activate GPR139 in a dose-responsive manner | did not activate | 2172 and 2234 and 2272 | did not activate | internalized
2 | N[C@@H](Cc1ccccc1)C(=O)O [Phe, L-phenylalanine] | able to activate GPR139 | 8697 and 6925 and 8417 | specifically activate GPR139 in a dose-responsive manner | 3.70 to 4.00 | specifically stimulate calcium mobilization | specifically activate GPR139 in a dose-responsive manner | did not activate | 2190 and 2215 and 2345 | did not activate | internalized
